The source made the active and inactive calls.
Tests used:
HEK293 [1] = experiment: NOD1 signaling inhibitors, primary screen, cell-based, luminescence, uHTS (AID 1578); type: functional; settings: Homo sapiens
[2] = system: Streptococcus sp. 'group A'; experiment: growth inhibition of control SK(-) GAS strain, dose response, counter-screen for streptokinase expression inhibitor project, luminescence, kanamycin, BacTiterGlo, confirmation (AID 1900); type: functional, organism-based
HEK293 [3] = experiment: cells; type: functional, cell-based; settings: Homo sapiens
Streptokinase A = biological target: T1, Streptokinase A (Streptococcus pyogenes serotype M1, UniProt P10520); experiment: S. pyogenes streptokinase expression inhibitors, potency, dose response, plasminogen activation absorbance, OD405 (AID 1914); type: functional, Streptococcus pyogenes M1 GAS;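 note: secreted streptokinase activity via plasminogen activation per viability signal from cell pellet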
T1 sequence (P10520 whole entry): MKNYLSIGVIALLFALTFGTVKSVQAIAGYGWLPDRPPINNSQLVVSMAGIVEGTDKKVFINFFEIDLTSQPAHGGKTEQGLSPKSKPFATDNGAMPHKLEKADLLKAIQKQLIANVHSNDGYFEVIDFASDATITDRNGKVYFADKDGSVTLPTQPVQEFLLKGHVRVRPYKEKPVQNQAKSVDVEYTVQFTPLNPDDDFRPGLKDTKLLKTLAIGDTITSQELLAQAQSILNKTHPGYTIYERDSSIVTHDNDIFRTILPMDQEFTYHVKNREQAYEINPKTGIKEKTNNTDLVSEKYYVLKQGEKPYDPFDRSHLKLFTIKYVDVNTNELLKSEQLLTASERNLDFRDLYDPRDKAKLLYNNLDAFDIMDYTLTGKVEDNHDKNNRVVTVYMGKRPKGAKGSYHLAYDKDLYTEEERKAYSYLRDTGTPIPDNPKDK

HEK293 [4] = experiment: cells; type: functional, cell-based; settings: Homo sapiens; remark: listed apart in the source
[5] = biological target: Nucleotide-binding oligomerization domain-containing protein 2 (Homo sapiens, UniProt Q9HC29); experiment: NOD2 signaling inhibitors, cell-based, luminescence, uHTS, HEK293 (AID 1566); type: functional
Sequence of Nucleotide-binding oligomerization domain-containing protein 2 (Q9HC29 whole entry, the tested form may be a part): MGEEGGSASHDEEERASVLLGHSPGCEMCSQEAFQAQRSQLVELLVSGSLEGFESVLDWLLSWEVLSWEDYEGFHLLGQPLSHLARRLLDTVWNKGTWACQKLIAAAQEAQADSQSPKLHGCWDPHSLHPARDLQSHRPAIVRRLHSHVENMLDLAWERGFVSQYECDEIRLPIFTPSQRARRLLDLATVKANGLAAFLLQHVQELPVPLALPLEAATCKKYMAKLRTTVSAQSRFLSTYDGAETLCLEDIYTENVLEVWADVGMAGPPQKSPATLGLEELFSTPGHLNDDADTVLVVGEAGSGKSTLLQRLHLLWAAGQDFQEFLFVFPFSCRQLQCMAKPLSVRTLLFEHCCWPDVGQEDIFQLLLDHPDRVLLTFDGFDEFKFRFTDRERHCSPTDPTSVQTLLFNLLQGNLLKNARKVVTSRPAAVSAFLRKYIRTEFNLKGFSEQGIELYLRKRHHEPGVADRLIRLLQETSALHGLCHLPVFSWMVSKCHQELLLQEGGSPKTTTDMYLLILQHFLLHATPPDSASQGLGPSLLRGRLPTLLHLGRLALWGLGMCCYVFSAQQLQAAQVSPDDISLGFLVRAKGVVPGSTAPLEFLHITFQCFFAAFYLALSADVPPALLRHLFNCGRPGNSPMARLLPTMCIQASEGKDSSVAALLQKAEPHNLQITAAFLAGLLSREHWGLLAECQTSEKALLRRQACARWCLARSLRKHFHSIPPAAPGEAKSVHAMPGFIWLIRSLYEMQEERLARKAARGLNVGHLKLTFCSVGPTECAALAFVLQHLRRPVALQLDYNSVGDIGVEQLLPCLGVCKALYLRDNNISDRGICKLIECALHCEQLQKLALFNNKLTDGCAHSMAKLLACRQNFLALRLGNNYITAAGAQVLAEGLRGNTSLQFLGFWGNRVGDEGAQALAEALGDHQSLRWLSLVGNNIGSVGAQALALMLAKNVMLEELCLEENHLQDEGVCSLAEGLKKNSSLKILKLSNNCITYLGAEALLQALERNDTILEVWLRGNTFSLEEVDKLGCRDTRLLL

HEK293 [6] = experiment: NOD2 signaling inhibitors in MDP-stimulated cells, cell-based, uHTS, luminescence (AID 2001); type: functional; settings: Homo sapiens
[7] = inhibitors of intracellular T. cruzi replication, confirmation, NIH3T3 host cells, beta-gal luminescence (AID 2044); type: functional, cell-based;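 note: intracellular parasites grown in NIH/3T3 mouse fibroblasts as host cells; luminescent beta-galactosidase reporter signal from transgenic T. cruzi replicating inside host cells; inhibitors lower the luminescence signal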
HEK293 [8] = experiment: cells; type: functional, cell-based; settings: Homo sapiens; remark: listed apart in the source
[9] = cytotoxicity toward NIH3T3 fibroblasts, dose response, counter-screen, cell-based, ATP luminescence, mouse fibroblasts (AID 2010); type: functional;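 note: cells exposed to compound for about 90 hours before reading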
Streptococcus = experiment: Group A Streptococcus viability loss, dose response, counter-screen for streptokinase expression inhibitor project, luminescence, BacTiterGlo (AID 1915); type: functional, organism-based;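 note: potency for reduction of bacterial viability or growth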
Vero = experiment: cells; type: functional; settings: Chlorocebus sabaeus
[10] = A549 cell cytotoxicity, dose response, cytotoxicity control, plate reader, cherry-pick, antagonist series (AID 743412); type: functional, cell-based
[11] = HepG2 cell cytotoxicity, dose response, cytotoxicity control, plate reader, cherry-pick, antagonist series (AID 743416); type: functional, cell-based
[12] = LGR2 antagonists, dose response, cell-based, HEK293, CRE-luciferase reporter, cherry pick, set 2 (AID 743343); type: functional;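 note: transfected cells were stimulated with diluted bursicon conditioned medium after compound addition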
[13] = MC4R antagonists, dose response, counter-screen for LGR2 antagonist project, cell-based, plate reader, cherry pick (AID 743444); type: functional;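 note: transfected HEK 293 cells stimulated with alpha-MSH peptide; potency of inhibitors of the alpha-MSH evoked signal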
[14] = HEK293 cell cytotoxicity, dose response, cytotoxicity control, plate reader, cherry-picked samples (AID 743446); type: functional, cell-based

CC(=O)c1c(C)[nH]c(C(=O)Nc2nc(-c3ccc(-c4ccccc4)cc3)cs2)c1C
EC50 (HEK293 [1]): 3.76 µM (active) | EC50 [2]: 4.48 µM (active) | IC50 (HEK293 [3]): 4.41 µM (active) | EC50 (Streptokinase A): > 150 µM (not active) | IC50 (HEK293 [4]): 11.2 µM (active) | EC50 [5]: 14.1 µM (active) | IC50 (HEK293 [6]): 4.86 µM (inactive) | EC50 [7]: 0.876 µM (active) | IC50 (HEK293 [8]): 18.2 µM (active) | EC50 [9]: > 60 µM (not active) | EC50 (Streptococcus): 16.7 µM (active) | CC50 (Vero): 21.1 µM (active) | AC50 [10]: 17.6 µM (active) | AC50 [11]: 23.5 µM (active) | AC50 [12]: 40.2 µM (active) | AC50 [13]: 20 µM (active) | AC50 [14]: 17.9 µM (active)

Source: ChEMBL document CHEMBL1201862, “PubChem BioAssay data set” (2004)
